Experimental data published in US20180051257A1, “METHODS FOR GENERATING ALVEOLAR TYPE II CELLS” (priority 2016, published 2018).

Tests used:
RB20 mESCs [1] = experiment: Foxa2 protein expression in mESC-derived DE cells by flow cytometric analysis; assay type: cell-based, mouse; settings: mESC-derived DE cells vs mESCs
From the text: (§1) To produce endoderm (DE) like cells, RB20 mESCs (embryonic stem cells) were maintained in adherent culture conditions on gelatin-coated dishes, prior to induction of differentiation. As depicted in FIG. 2, an overview of the mESCs maintenance and differentiation protocol. Differentiation of the cells was initiated via a reduction in concentration of KoSR; after three days, cells were induced by IDE2 for six days. In the next step, DE cells differentiated into alveolar type II-like (AT II-like) cells using seven different combinations of three inductive factors: FGF2 (F), hydrocortisone (H) and A549 conditioned medium (CM) during 9 days. The mESCs were cultured in media with reducing concentration of serum for 3 days, for example, 20%, 10% and 5% fetal bovine serum (FBS) in day one, two and three, respectively. Then, it was induced by 200 nM small inducing molecule IDE2 for 6 days. At the end of this first step, DE like cells were characterized for the expression of two DE markers, Sox17 and Foxa2.
Lack of expression of Foxa2 could be seen in mESC cells.

RB20 mESCs [2] = experiment: Induction of mESCs to definitive endoderm (DE)-like cells by IDE2: RT-PCR of DE markers and phase contrast morphology; assay type: cell-based, mouse
From the text: as §1
The morphology of the said markers in the DE-like cells was assayed by phase contrast microscopy.

[3] = 200 nM IDE2, day 6, compared to mESCs negative control group, P<0.05

O=C(O)CCCCCC(=O)NN=C1CCCC1 [IDE2]
numbers of cells that expressed DE-specific marker Foxa2 at the protein level (RB20 mESCs [1]): increase in numbers of cells
expression level of Foxa2 (RT-PCR) (RB20 mESCs [2]; [3]): increased expression levels
expression level of Sox 17 (RT-PCR) (RB20 mESCs [2]; [3]): increased expression levels
cell morphology in phase contrast micrograph (RB20 mESCs [2]; day 6 of IDE2 induction): epithelial morphology characteristic of DE cells
